According to PubChem BioAssay AID1465 (SRMLSC, 2008):
pEC50: −log10 of the molar value.

test system: S. cerevisiae Yfh1-off respiration, WST-1 reduction, 72 h; assay: mitochondrial function rescue without frataxin homolog – Friedreich's ataxia, plus single-dose screen, dose response (AID 1465);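 further: activators that raise dye reduction in frataxin-depleted yeast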

SMILES | pEC50
O=C(N/N=C/c1c(O)n(Cc2ccccc2)c(=O)c2ccccc12)c1cccnc1 | 4.14
CC1=C(C)C(=O)C(CCCCC#CCCCC#CCO)=C(C)C1=O | 4.02
COC(=O)c1ccc(=O)c2nc3/c(=C/O)c(O)cc(=O)c3[nH]c12 | 4.66
CCOC(=O)C1=C(Cc2ccc(F)cc2)C(=O)c2ccccc2C1=O | 4.44
Cc1ccc(NS(=O)(=O)c2cc([N+](=O)[O-])ccc2NNC(=S)Nc2cccc(Cl)c2)c(C)c1 | 4.51
O=C(C1=C(c2ccccc2)C(=O)c2ccccc2C1=O)c1ccccc1 | 4.45
O=C(COc1ccc(Cl)cc1Cl)NNC(=S)Nc1ccc(F)cc1 | 4.08
CCN1/C(=C\C=C(C(C)=O)C(C)=O)Sc2ccccc21 | 4.06
CCCCCC(=O)NNC(=S)NC(C)=O | 4.46
O=C1c2ccccc2NC(c2ccc(-c3cccc(Cl)c3)o2)N1O (stereo not given) | 4.10
O=[N+]([O-])c1ccc(Sc2cccc[n+]2[O-])c2nonc12 | 4.77
CCC(=O)NC(c1ccc(OC)cc1)c1cc(Cl)c2cccnc2c1O (stereo not given) | 4.42
NC(=S)n1[nH]c(-c2ccc([N+](=O)[O-])cc2)c(N=Nc2cccc([N+](=O)[O-])c2)c1=O | 4.36
CCCCC(=O)NC(c1cccs1)c1cc(Cl)c2cccnc2c1O (stereo not given) | 5.07
Cc1coc2c1C(=O)C(=O)c1c-2ccc2c(C)cccc12 | 4.10
CCN1CCS/C1=C\C=C\C1=[N+](CC)CCS1 | 4.27
O=C(Cn1nc(Cl)nc1Cl)c1cc2ccccc2oc1=O | 4.14
O=C(O)c1cccc(NC(=S)N/N=C/c2ccccn2)c1 | 4.11
c1ccc(-c2ccc(SCc3cccnc3)nn2)nc1 | 4.37
CCC(=O)NC(c1cccs1)c1cc([N+](=O)[O-])c2cccnc2c1O (stereo not given) | 4.46

SMILES | pEC50
CC[n+]1c(C=C2C=C(C)OC(C)=C2)sc2ccccc21 | 4.08
Cc1cc(C(=O)N/N=C/c2ccc(O)c(O)c2O)c(C)n1-c1ccccc1 | 4.34
Oc1ccc(CN2CCC(Cc3ccccc3)CC2)c2cccnc12 | 4.01
CCC(=O)NC(c1ccc(C)cc1)c1cc([N+](=O)[O-])c2cccnc2c1O (stereo not given) | 4.61
Cc1c(N/N=C(\C#N)C(=O)c2ccccc2)c(=O)n(-c2ccccc2)n1C | 4.28
CCC(C(=O)O)N1C(=O)/C(=C/c2cccn2C)SC1=S (stereo not given) | 4.01
Cc1c(N/N=C(\C#N)C(=O)c2ccc(Cl)cc2)c(=O)n(-c2ccccc2)n1C | 4.67
CC(=O)NC(c1cccs1)c1cc([N+](=O)[O-])c2cccnc2c1O (stereo not given) | 4.60
CCOC(=O)c1c(C)oc2c1c(CN1CCN(CCO)CC1)c(O)c1ccccc12 | 4.07
CCCC(=O)NC(c1ccco1)c1cc([N+](=O)[O-])c2cccnc2c1O (stereo not given) | 4.26
COc1ccccc1C(=O)NNC1=C(C(=O)C(F)(F)F)CCC1 | 4.60
CN1/C(=C\C=C2C(=O)NC(=O)NC2=O)C(C)(C)c2ccccc21 | 4.01
COc1ccc(C2=NN(c3nc4ccccc4s3)C(=O)C2)cc1 | 4.23
CC1=CC(=Cc2sc3ccccc3[n+]2C)C=C(C)O1 | 4.03
CCOC(=O)/C(C#N)=C\C=C1C=CN(C)C=C1 | 4.02
O=C1C(Cl)=C(Nc2ccccc2)C(=O)c2ccccc21 | 4.17
O=C(NNC1=C(C(=O)C(F)(F)F)CCC1)c1ccc(Br)cc1 | 4.22
COc1ccccc1N1CCN(Cc2ccc(O)c3ncccc23)CC1 | 4.37
Cn1cccc1/C=C1\SC(=S)N(CC(=O)O)C1=O | 4.04
CC1=CC(=O)c2ccccc2C1=O | 4.34

SMILES | pEC50
CCN(CC)c1ccc(/C=N/NC(=O)c2cccc(S(=O)(=O)Nc3ccccc3OC)c2)c(O)c1 | 4.12
CC(=O)NC(c1ccc(C)cc1)c1cc([N+](=O)[O-])c2cccnc2c1O (stereo not given) | 4.60
O=C1C=C(NCc2ccccc2)c2ccccc2C1=O | 4.44
CCC(=O)NC(c1cccs1)c1cc(Cl)c2cccnc2c1O (stereo not given) | 4.18
Cc1ccccc1C(=O)/C(C#N)=N/Nc1c(C)n(C)n(-c2ccccc2)c1=O | 4.22
Cc1oc2c(c1C(=O)c1ccccc1)C(=O)C(=O)c1ccccc1-2 | 4.45
COc1ccc(Cn2c(O)c(/C=N/NC(=O)c3cccnc3)c3ccccc3c2=O)cc1 | 4.12
O=C(O)c1cccc2nc3ccccc3nc12 | 4.32
COc1cc(/C=N/NC(=O)c2cncc(Br)c2)cc([N+](=O)[O-])c1O | 4.24
CCCCC(=O)NC(c1ccccc1OC)c1ccc2cccnc2c1O (stereo not given) | 4.44
O=C1NC(=O)C(=Cc2ccc(N3CCOCC3)o2)C(=O)N1 | 4.01
CCC(=O)NC(c1ccc(OC)c(OC)c1)c1cc(Cl)c2cccnc2c1O (stereo not given) | 4.53
CCN1CCS/C1=C/C=C/C1=[N+](CC)CCS1 | 4.25
O=c1cc(-c2ccccc2)[nH]n1-c1nc2ccccc2s1 | 4.31
COc1cc([N+](=O)[O-])cc(/C=N/NC(=O)c2cc(-c3ccccc3)nc3ccccc23)c1O | 4.45
CC1=C(C)C(=O)C(N2CCOCC2)=CC1=O | 4.85
CC1CC(=O)c2c(cc3c(-c4c(O)cc(O)c5c(O)c6c(cc45)OC(C)CC6=O)c(O)cc(O)c3c2O)O1 (stereo not given) | 4.12
O=C(CCc1ccccc1)NC(c1cccs1)c1cc(Cl)c2cccnc2c1O (stereo not given) | 5.13
CCCC(=O)NC(c1cccs1)c1cc([N+](=O)[O-])c2cccnc2c1O (stereo not given) | 4.68
O=[N+]([O-])c1cccc(/C=N/Nc2nc(NCc3ccccc3)nc(N3CCOCC3)n2)c1O | 4.29
